In patent US20190375723A1, “New Naphtho[2,3-B]Furan Derivatives” (Boston Biomedical, Inc., priority 2016, published 2019):

Key:
HCT-116 cells [1] = assay: Inhibition assay of cancer cell sphere-forming ability; format: cell-based; conditions: Homo sapiens, 96 h, ultra-low attachment plate, serum-free DMEM/F12 with B27, EGF, bFGF, insulin, cultured for 4 days, Cell Titer-Glo
Procedure: HCT-116 cells were obtained from American Type Culture Collection (ATCC). HCT-116 cells were cultured at 37° C. in the presence of 5% CO2 using McCoy's 5a medium containing 10% fetal bovine serum (FBS) and 1% penicillin/streptomycin. The HCT-116 cells were seeded onto 384 Well Black Clear Bottom Ultra-Low Attachment Microplate (Corning Cat. No. 3827) using DMEM/F12 medium containing 2% B27 supplement (GIBCO), 20 ng/mL epidermal growth factor (EGF) (peprotech), 10 ng/mL basic fibroblast growth factor (bFGF) (peprotech), 5 μg/mL insulin (Sigma), and 1% penicillin/streptomycin to be 350-800 cells/well. A test substance was added so that the final concentration of DMSO is 0.1%, and then cultured for 4 days. The number of living cells was then counted using Cell Titer-Glo (registered trademark) Luminescent Cell Viability Assay (Promega) to calculate the concentration for 50% inhibition of cell proliferation of respective test substances (Sphere IC50 value; μM) (this test is a method which evaluates the functions of cancer stem cells (see Non Patent Literature 4)).

HCT-116 cells [2] = assay: Proliferation inhibition assay of cancer cells; format: cell-based; conditions: Homo sapiens, 96 h, adherent culture with 10% FBS, cultured for 4 days, Cell Titer-Glo, read-out: IC50 (μM) HCT (Bulk IC50 value)
Procedure: HCT-116 cells were obtained from American Type Culture Collection (ATCC). HCT-116 cells were cultured at 37° C. in the presence of 5% CO2 using McCoy's 5a medium containing 10% fetal bovine serum (FBS) and 1% penicillin/streptomycin. After cells were seeded at 300-600 cells/well onto μClear-plate black 384 well (Greiner bio-one Cat. No. 781091), a test substance was added such that the final concentration of DMSO is 0.1%, and cultured for 4 days. The number of living cells was then counted using Cell Titer-Glo (registered trademark) Luminescent Cell Viability Assay (Promega) to calculate a concentration for 50% inhibition of cell proliferation of respective test substances (Bulk IC50 value; μM).

| IC50 (HCT-116 cells [1]) | IC50 (HCT-116 cells [2]) | Compound |
| --- | --- | --- |
| 0.24 µM | 0.63 µM | CC(=O)c1cc2c(o1)C(=O)c1c(Cl)ccc(O)c1C2=O [Example 1, 2-Acetyl-8-chloro-5-hydroxynaphtho[2,3-b]furan-4,9-dione] |
| 5.12 µM | 0.63 µM | CC(=O)c1cc2c(o1)C(=O)c1ccc(Br)c(O)c1C2=O [Example 2, 2-Acetyl-6-bromo-5-hydroxynaphtho[2,3-b]furan-4,9-dione] |
| 6.39 µM | 4.93 µM | CC(=O)c1cc2c(o1)C(=O)c1c(ccc(Br)c1O)C2=O [Example 3, 2-Acetyl-7-bromo-8-hydroxynaphtho[2,3-b]furan-4,9-dione] |
